Measured values reported in patent US11976054B2, “Amide derivative and preparation method therefore and use thereof in medicine” (Chengdu Baiyu Pharmaceutical Co., Ltd., priority 2019, dated 2024).

Legend:
[1] = system: Human monocyte cell line THP-1; assay: Detection of THP-1 cell pyroptosis (Caspase-Glo 1 Inflammasome Assay); type: cell-based; settings: 20 nM PMA 48 h, 1 μg/mL LPS, compound 3 h
Procedure, shortened: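 Differentiated with 20 nM PMA for 48 h (50,000 cells/well), then given serum-free medium with 1 μg/mL LPS and compound in a 10-point, 3-fold series from 10 μM for 3 h at 37 °C. Caspase-1 activity read with Caspase-Glo 1 Inflammasome kit; IC50 calculated.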

[2] = system: IL-1β release in human PBMCs; assay: Assay of IL-1β release in human PBMCs; type: cell-based; settings: 10 ng/mL LPS 3 h, compound 0.5 h, 5 mM ATP 1 h, ELISA
Method: 5 mL of human venous whole blood from a healthy donor was placed in a Li-heparin tube. PBMCs were isolated and incubated in a culture medium containing 10 ng/mL LPS at 37° C./5% CO2 for 3 h. Cells were plated in a 96-well plate at 50 μL per well. 25 μL of compound or solvent control was added to each well and 3-fold diluted in gradient from a maximum concentration of 10 μM, and 8 gradient concentrations were set. The mixtures were incubated for 0.5 h. 25 μL of ATP at a final concentration of 5 mM was added to each well, and the resulting mixtures were incubated for 1 h. After the incubation, the mixtures were centrifuged at 1500 rpm for 20 min, and the supernatant was collected to detect the expression level of […] by ELISA (BD, Human IL-1β ELISA Set II, Cat #557953). IC50 was calculated using GraphPad Prism7.0 software. The results are shown in Table 2, which indicate that: the compounds disclosed herein down-regulate release of mature IL-1β by inhibiting the activity of Caspase-1, and the IC50 is <50 nM.

[3] = Pharmacokinetic analysis of compounds in rats; type: in vivo, SD rats
Method: Healthy adult SD rats weighing 180-220 g were fasted (free access to water) overnight and divided into tail vein administration group and intragastric administration group. The tail vein administration group was subjected to blood collection of 0.1 mL from orbital venous plexus before the administration and 5 min, 15 min, 0.5 h, 1 h, 2 h, 4 h, 8 h, 12 h and 24 h after the administration, and plasma was separated out by centrifugation at 4° C. for 5 min and stored at −20° C. for test. The intragastric administration group was subjected to blood collection of 0.1 mL from orbital venous plexus before the administration and 5 min, 15 min, 0.5 h, 1 h, 2 h, 4 h, 8 h, 12 h and 24 h after the administration, and the subsequent treatment procedures were the same as those of the tail vein injection group. The concentration of parent drug in the plasma was determined by LC-MS/MS.

[4] = system: Rat dorsal air pouch models; assay: Rat dorsal air pouch pharmacodynamic models (sodium urate); type: in vivo, SD rats; settings: 30 mg/kg, air pouch exudate 5 h after 1% sodium urate
Method: Healthy adult male SD rats weighing 180-220 g were purchased, and rat dorsal air pouch models were constructed after adaptive feeding of the rats. On day 1, day 4 and day 7 of modeling, 20 mL of sterile air was injected subcutaneously into the back of rats by means of injection needles, and the air pouch was maintained at an inflated state. On day 8, 50 mg/kg compound or vehicle control was administered intragastrically. 5 mL of 1% sodium urate suspension was injected into the dorsal air pouch, and air pouch exudate was collected 5 h later. 40 μL of the exudate was taken for leukocyte counting. The remaining exudate was centrifuged at 1500 rpm for 20 min, and the supernatant was collected to detect the expression level of IL-1β by ELISA (BD, Human IL-1β ELISA Set II, Cat #557953).

[5] = Homo sapiens, THP-1, THP-1 pyroptosis
[6] = SD rats, iv (tail vein), 1 mg/kg, plasma
[7] = SD rats, po (intragastric), 10 mg/kg, plasma

| Compound | IC50 [1, 5] [nM] | IC50 ([2]; PBMC) [nM] | IC50 ([1]; THP-1 pyroptosis) [nM] | IC50 [2] [nM] | other results |
| --- | --- | --- | --- | --- | --- |
| C[C@@H](c1cc(F)c2c(c1NC(=O)N[S@@](=N)(=O)c1cc(C(C)(C)O)co1)CCC2)C1CC1 (mixture of isomers) [Compound 42-1, (R)- and (S)-N-((5-((R)-1-cyclopropylethyl)-7-fluoro-2,3-dihydro-1H-inden-4-yl)carbamoyl)-4-(2-hydroxypropan-2-yl)furan-2-sulfonimidamide] | 100 to 500 | 18.5 | – | – | – |
| C[C@@H](c1ccc2c(c1NC(=O)NS(=N)(=O)c1cc(C(C)(C)O)co1)CCC2)C1CCC1 (mixture of isomers) [Compound 80-2, (RS)- and (SS)-N-((5-((R)-1-cyclobutylethyl)-2,3-dihydro-1H-inden-4-yl)carbamoyl)-4-(2-hydroxypropan-2-yl)furan-2-sulfonimidamide] | – | – | ≤ 100 | 14.8 | – |
| Cc1oc(S(=N)(=O)NC(=O)Nc2c(C(C)C3CC3)ccc3c2CCC3)cc1C(C)(C)O (single isomer, unassigned) [Compound 24-2, RS- and SS-N-((5-(1-cyclopropylethyl)-2,3-dihydro-1H-inden-4-yl)carbamoyl)-4-(2-hydroxypropan-2-yl)-5-methylfuran-2-sulfonimidamide] | – | – | ≤ 100 | 17.4 | – |
| [2H]c1cc([C@@H](C)C2CC2)c(NC(=O)NS(=N)(=O)c2cc(C(C)(C)O)co2)c2c1CCC2 (single isomer, unassigned) [Compound 32-2, (RS, SC)- and (SS, SC)-N-((5-(1-cyclopropylethyl)-2,3-dihydro-1H-inden-4-yl-7-d)carbamoyl)-4-(2-hydroxypropan-2-yl)furan-2-sulfonimidamide] | – | 28.9 | ≤ 100 | – | – |
| C[C@@H](c1cc(F)c2c(c1NC(=O)N[S@@](=N)(=O)c1cc(C(C)(C)O)co1)CCC2)C1CC1 (single isomer, unassigned) [Compound 42-2] | ≤ 100 | 3.2 | – | – | AUC ([3]; SD, rat, in vivo, iv, 1 mg/kg): 1980 ng·h/mL; Vd ([3]; SD, rat, in vivo, iv, 1 mg/kg): 0.503 L/kg; clearance ([3]; SD, rat, in vivo, iv, 1 mg/kg): 8.6 mL/min/kg; half-life ([3]; SD, rat, in vivo, iv, 1 mg/kg): 0.79 h; bioavailability ([3]; SD, rat, in vivo, po): 87.2%; AUC ([3]; SD, rat, in vivo, po, 10 mg/kg): 17300 ng·h/mL; Cmax ([3]; SD, rat, in vivo, po, 10 mg/kg): 8500 ng/mL; half-life ([3]; SD, rat, in vivo, po, 10 mg/kg): 2.1 h |
| C[C@H](c1cc(F)c2c(c1NC(=O)N[S@@](=N)(=O)c1cc(C(C)(C)O)co1)CCC2)C1CC1 (single isomer, unassigned) [Compound 44-2] | ≤ 100 | 16.3 | – | – | AUC ([3]; SD, rat, in vivo, iv, 1 mg/kg): 1620 ng·h/mL; Vd ([3]; SD, rat, in vivo, iv, 1 mg/kg): 0.537 L/kg; clearance ([3]; SD, rat, in vivo, iv, 1 mg/kg): 10.5 mL/min/kg; half-life ([3]; SD, rat, in vivo, iv, 1 mg/kg): 0.93 h; bioavailability ([3]; SD, rat, in vivo, po): 89.1%; AUC ([3]; SD, rat, in vivo, po, 10 mg/kg): 14500 ng·h/mL; Cmax ([3]; SD, rat, in vivo, po, 10 mg/kg): 6380 ng/mL; half-life ([3]; SD, rat, in vivo, po, 10 mg/kg): 2.4 h |
| COc1cc2c(c(OC)c1OC)-c1ccc(OC)c(=O)cc1[C@@H](NC(C)=O)CC2 [Colchicine, reference compound] | – | – | – | – | Leukocyte concentration (10^6/mL) [4]: 3.40 ± 0.7 10^6/mL; IL-1β concentration in exudate ([4]; ELISA): 1190.9 ± 463.6 pg/mL |
| C[C@H](c1ccc2c(c1NC(=O)NS(=O)(=O)c1cc(C(C)(C)O)co1)CCC2)C1CC1 [Compound 7, (S)-N-((5-(1-cyclopropylethyl)-2,3-dihydro-1H-inden-4-yl)carbamoyl)-4-(2-hydroxypropan-2-yl)furan-2-sulfonamide] | ≤ 100 | 41.1 | – | – | – |
| CC(c1cc(F)c2c(c1NC(=O)NS(=O)(=O)c1cc(C(C)(C)O)co1)CCC2)C1CC1 (stereo not drawn) [Compound 9, N-((5-(1-cyclopropylethyl)-7-fluoro-2,3-dihydro-1H-inden-4-yl)carbamoyl)-4-(2-hydroxypropan-2-yl)furan-2-sulfonamide] | – | 25.6 | – | – | – |
| Cc1oc(S(=N)(=O)NC(=O)Nc2c(CC3CCC3)ccc3c2CCC3)cc1C(C)(C)O (stereo not drawn) [Compound 21-1, RS- and SS-N-((5-(cyclobutylmethyl)-2,3-dihydro-1H-inden-4-yl)carbamoyl)-4-(2-hydroxypropan-2-yl)-5-methylfuran-2-sulfonimidamide] | – | – | ≤ 100 | 26.2 | AUC ([3]; rat, in vivo, iv, 1 mg/kg): 2404 ng·h/mL; Cl ([3]; rat, in vivo, iv, 1 mg/kg): 7.4 mL/min/kg; Vss ([3]; rat, in vivo, iv, 1 mg/kg): 0.371 L/kg; t1/2 ([3]; rat, in vivo, iv, 1 mg/kg): 0.65 h; AUC ([3]; rat, in vivo, po, 10 mg/kg): 37246 ng·h/mL; Cmax ([3]; rat, in vivo, po, 10 mg/kg): 12717 ng/mL; t1/2 ([3]; rat, in vivo, po, 10 mg/kg): 2.3 h |
| Cc1oc(S(=O)(=O)NC(=O)Nc2c([C@@H](C)C3CC3)ccc3c2CCC3)cc1C(C)(C)O [Compound 23, (S)-N-((5-(1-cyclopropylethyl)-2,3-dihydro-1H-inden-4-yl)carbamoyl)-4-(2-hydroxypropan-2-yl)-5-methylfuran-2-sulfonamide] | 100 to 500 | 5 | – | – | – |
| [2H]c1cc([C@H](C)C2CC2)c(NC(=O)NS(=O)(=O)c2cc(C(C)(C)O)co2)c2c1CCC2 [Compound 29, (R)-N-((5-(1-cyclopropylethyl)-2,3-dihydro-1H-inden-4-yl-7-d)carbamoyl)-4-(2-hydroxypropan-2-yl)furan-2-sulfonamide] | 100 to 500 | 18.5 | – | – | – |
| C[C@@H](c1cc(F)c2c(c1NC(=O)NS(=O)(=O)c1cc(C(C)(C)O)co1)CCC2)C1CC1 [Compound 41, (R)-N-((5-(1-cyclopropylethyl)-7-fluoro-2,3-dihydro-1H-inden-4-yl)carbamoyl)-4-(2-hydroxypropan-2-yl)furan-2-sulfonamide] | ≤ 100 | 5 | – | – | – |
| C[C@H](c1cc(F)c2c(c1NC(=O)NS(=O)(=O)c1cc(C(C)(C)O)co1)CCC2)C1CC1 [Compound 43, (S)-N-((5-(1-cyclopropylethyl)-7-fluoro-2,3-dihydro-1H-inden-4-yl)carbamoyl)-4-(2-hydroxypropan-2-yl)furan-2-sulfonamide] | 500 to 1000 | 11.6 | – | – | – |
| C[C@@H](c1ccc2c(c1NC(=O)NS(=O)(=O)c1cnc(C(C)(C)O)s1)CCC2)C1CC1 [Compound 87, (R)-N-((5-(1-cyclopropylethyl)-2,3-dihydro-1H-inden-4-yl)carbamoyl)-2-(2-hydroxypropan-2-yl)thiazole-5-sulfonamide] | ≤ 100 | 40.4 | – | – | – |
| (RS, RC)- and (SS, RC)-N-((5-(1-cyclopropylethyl)-2,3-dihydro-1H-inden-4-yl-7-d)carbamoyl)-4-(2-hydroxypropan-2-yl)furan-2-sulfonimidamide [Compound 31-2] | – | – | ≤ 100 | 25 | – |
| (RS, SC)- and (SS, SC)-N-((5-(1-cyclobutylethyl)-2,3-dihydro-1H-inden-4-yl)carbamoyl)-4-(2-hydroxypropan-2-yl)furan-2-sulfonimidamide [Compound 82-1] | – | – | 100 to 500 | 5.2 | AUC [3, 6]: 2228 ng·h/mL; Cl [3, 6]: 11.2 mL/min/kg; Vss [3, 6]: 0.379 L/kg; t1/2 [3, 6]: 0.70 h; F % ([3]; SD rats, po 10 mg/kg vs iv 1 mg/kg): 74.0%; AUC [3, 7]: 16478 ng·h/mL; Cmax [3, 7]: 5883 ng/mL; t1/2 [3, 7]: 2.3 h |
| RS- and SS-N-((5-(cyclobutylmethyl)-2,3-dihydro-1H-inden-4-yl-7-d)carbamoyl)-4-(2-hydroxypropan-2-yl)furan-2-sulfonimidamide [Compound 39-1] | – | – | ≤ 100 | 31.7 | – |
